From ChEMBL document CHEMBL1201862, “PubChem BioAssay data set” (2004)
Activity calls are given as the source filed them.

Columns and labels:
[1] = target: Neuropeptide Y receptor type 1 (Homo sapiens, UniProt P25929); assay: Fluorescence-based dose response cell-based high-throughput screening assay for agonists of NPY-Y1. [Related pubchem assays: 1697 (Screening assay (NPY-Y1 agonists).), 1359 (Screening assay (NPY-Y2 potentiators or agonists).), 1304 (Screening assay (NPY-Y1 potentiators or agonists).), 1704 (Screening assay (CNGC inhibitors).), 1791 (Summary AID.)]; assay type: functional
[2] = system: HEK293; assay: Fluorescence-based counterscreen for potentiators or agonists of NPY-Y1: cell-based high-throughput dose response assay for inhibitors of cyclic nucleotide gated ion channel (CNGC) activity. In this assay, the parental HEK293 cell line transfected with a cyclic-nucleotide gated ion channel (CNGC)-based cAMP sensor is used to measure inhibition of isoproterenol-induced CNGC …; assay type: functional; details: Homo sapiens
[3] = target: Neuropeptide Y receptor type 2 (Homo sapiens, UniProt P49146); assay: Fluorescence-based counterscreen for agonists of NPY-Y1: cell-based high-throughput dose response assay for agonists of NPY-Y2.; assay type: functional
[4] = target: Heat shock protein HSP 90-alpha (Homo sapiens, UniProt P07900); assay type: functional, organism-based
[5] = target: Mitochondrial peptide methionine sulfoxide reductase (Bos taurus, UniProt P54149); assay: Absorbance-based biochemical high throughput dose response assay for activators of Methionine sulfoxide reductase A (MsrA).; assay type: functional
[6] = target: Transitional endoplasmic reticulum ATPase (Homo sapiens, UniProt P55072, C522A); assay: C522A mutant p97 ATPase inhibitors, dose response, counter-screen for p97 inhibitor project, biochemical, luminescence (AID 1544)
[7] = target: Transitional endoplasmic reticulum ATPase (Homo sapiens, UniProt P55072); assay: p97 ATPase inhibitors, dose response, biochemical (AID 1534)
[8] = Trypanosoma cruzi growth suppression in host cells – NIH3T3 host cells, beta-gal luminescence, confirmation (AID 2044); assay type: functional, cell-based;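 further: intracellular parasites grown in NIH/3T3 mouse fibroblasts as host cells; luminescent beta-galactosidase reporter signal from transgenic T. cruzi replicating inside host cells; inhibitors lower the luminescence signal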
[9] = NIH3T3 cell viability loss – ATP luminescence, mouse fibroblasts, counter-screen, dose response (AID 2010); assay type: functional, cell-based;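 further: cells exposed to compound for about 90 hours before reading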
[10] = cells; assay type: functional
[11] = target: Acyl-homoserine lactone acylase PvdQ (Pseudomonas aeruginosa (strain LESB58), UniProt Q9I194); assay: PvdQ acylase enzyme activity blockers – biochemical, fluorescence, plate reader and imaging, cherry-picks, dose response (AID 493231)
Acyl-homoserine lactone acylase PvdQ, sequence (Q9I194 24-193 limits assumed): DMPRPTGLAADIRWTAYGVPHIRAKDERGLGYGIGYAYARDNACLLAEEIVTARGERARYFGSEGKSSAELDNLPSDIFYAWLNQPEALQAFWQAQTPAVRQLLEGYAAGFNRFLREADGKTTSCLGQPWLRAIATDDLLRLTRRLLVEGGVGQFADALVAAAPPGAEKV
Acyl-homoserine lactone acylase PvdQ, sequence (Q9I194 217-762 limits assumed): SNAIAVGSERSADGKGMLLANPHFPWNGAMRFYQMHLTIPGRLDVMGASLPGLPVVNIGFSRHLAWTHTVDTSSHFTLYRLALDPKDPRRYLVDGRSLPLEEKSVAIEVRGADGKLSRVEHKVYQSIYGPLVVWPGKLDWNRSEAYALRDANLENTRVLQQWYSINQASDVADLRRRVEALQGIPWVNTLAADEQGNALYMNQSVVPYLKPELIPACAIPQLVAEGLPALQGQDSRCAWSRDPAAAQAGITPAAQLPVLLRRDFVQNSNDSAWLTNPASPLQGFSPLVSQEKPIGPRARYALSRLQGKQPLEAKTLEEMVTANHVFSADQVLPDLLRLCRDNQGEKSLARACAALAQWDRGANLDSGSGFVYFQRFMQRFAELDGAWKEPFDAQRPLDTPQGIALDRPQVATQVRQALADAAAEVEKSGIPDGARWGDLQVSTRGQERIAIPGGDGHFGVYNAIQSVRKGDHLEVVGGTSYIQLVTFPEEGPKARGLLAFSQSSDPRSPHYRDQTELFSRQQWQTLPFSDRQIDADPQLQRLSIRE

Neuropeptide Y receptor type 2, sequence (P49146 whole entry): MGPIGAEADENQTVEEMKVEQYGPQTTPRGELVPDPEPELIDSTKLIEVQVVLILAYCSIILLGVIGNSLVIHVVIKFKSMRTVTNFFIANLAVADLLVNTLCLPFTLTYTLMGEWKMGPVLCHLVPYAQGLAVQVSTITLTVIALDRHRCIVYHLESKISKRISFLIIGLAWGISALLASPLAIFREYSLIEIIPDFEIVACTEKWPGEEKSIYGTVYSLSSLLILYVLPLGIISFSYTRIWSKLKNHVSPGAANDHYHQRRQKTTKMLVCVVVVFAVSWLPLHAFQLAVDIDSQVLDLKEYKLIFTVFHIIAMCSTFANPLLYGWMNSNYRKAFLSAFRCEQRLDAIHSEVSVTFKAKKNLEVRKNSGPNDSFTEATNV
Mitochondrial peptide methionine sulfoxide reductase, sequence (P54149 whole entry): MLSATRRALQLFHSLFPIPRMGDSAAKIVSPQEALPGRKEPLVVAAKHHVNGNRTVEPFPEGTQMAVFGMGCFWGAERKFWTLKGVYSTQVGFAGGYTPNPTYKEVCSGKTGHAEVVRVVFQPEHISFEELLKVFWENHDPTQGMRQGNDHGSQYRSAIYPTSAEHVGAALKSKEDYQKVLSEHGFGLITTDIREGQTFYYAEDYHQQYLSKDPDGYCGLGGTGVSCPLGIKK
Transitional endoplasmic reticulum ATPase (Homo sapiens, UniProt P55072, C522A), sequence (P55072 2-806 C522A limits assumed): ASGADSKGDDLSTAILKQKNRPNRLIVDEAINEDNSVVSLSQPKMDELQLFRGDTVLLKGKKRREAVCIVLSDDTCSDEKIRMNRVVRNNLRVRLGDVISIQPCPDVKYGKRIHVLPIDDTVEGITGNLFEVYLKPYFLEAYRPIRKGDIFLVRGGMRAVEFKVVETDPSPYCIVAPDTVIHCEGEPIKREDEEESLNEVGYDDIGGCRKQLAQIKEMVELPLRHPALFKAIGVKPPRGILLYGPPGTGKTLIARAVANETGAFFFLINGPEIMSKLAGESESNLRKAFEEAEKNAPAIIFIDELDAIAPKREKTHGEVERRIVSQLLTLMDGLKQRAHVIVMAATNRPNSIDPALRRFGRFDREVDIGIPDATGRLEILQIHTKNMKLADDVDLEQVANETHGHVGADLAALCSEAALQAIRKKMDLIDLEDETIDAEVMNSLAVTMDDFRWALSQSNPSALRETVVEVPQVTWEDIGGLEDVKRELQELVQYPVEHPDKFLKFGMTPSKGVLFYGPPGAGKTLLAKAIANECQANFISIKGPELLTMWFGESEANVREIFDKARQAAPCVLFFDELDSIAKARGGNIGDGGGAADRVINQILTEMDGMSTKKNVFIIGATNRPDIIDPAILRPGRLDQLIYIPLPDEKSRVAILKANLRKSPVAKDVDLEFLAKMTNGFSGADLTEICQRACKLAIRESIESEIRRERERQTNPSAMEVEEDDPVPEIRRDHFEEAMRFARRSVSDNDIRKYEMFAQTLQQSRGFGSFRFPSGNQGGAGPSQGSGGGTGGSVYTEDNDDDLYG
Transitional endoplasmic reticulum ATPase (Homo sapiens, UniProt P55072), sequence (P55072 whole entry): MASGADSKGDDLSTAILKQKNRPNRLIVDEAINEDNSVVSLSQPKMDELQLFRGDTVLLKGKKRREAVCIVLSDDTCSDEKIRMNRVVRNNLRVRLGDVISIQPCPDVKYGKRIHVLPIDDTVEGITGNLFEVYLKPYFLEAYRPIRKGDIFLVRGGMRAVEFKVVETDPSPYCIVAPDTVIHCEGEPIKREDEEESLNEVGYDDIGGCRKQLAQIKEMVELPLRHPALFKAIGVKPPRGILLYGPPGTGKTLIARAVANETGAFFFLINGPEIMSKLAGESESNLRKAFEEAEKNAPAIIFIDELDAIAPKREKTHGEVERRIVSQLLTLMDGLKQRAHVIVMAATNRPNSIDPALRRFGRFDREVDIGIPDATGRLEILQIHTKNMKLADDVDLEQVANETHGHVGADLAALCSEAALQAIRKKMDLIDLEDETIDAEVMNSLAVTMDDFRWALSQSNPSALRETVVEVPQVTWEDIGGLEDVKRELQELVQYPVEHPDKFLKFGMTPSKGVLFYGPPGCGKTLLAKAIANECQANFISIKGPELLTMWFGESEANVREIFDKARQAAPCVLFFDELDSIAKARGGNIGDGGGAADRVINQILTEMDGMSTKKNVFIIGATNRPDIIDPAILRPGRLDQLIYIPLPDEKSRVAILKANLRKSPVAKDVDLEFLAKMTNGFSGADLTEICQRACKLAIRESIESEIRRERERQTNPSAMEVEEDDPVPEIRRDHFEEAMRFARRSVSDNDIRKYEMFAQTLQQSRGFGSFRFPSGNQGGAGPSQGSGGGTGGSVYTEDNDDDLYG
Neuropeptide Y receptor type 1, sequence (P25929 whole entry): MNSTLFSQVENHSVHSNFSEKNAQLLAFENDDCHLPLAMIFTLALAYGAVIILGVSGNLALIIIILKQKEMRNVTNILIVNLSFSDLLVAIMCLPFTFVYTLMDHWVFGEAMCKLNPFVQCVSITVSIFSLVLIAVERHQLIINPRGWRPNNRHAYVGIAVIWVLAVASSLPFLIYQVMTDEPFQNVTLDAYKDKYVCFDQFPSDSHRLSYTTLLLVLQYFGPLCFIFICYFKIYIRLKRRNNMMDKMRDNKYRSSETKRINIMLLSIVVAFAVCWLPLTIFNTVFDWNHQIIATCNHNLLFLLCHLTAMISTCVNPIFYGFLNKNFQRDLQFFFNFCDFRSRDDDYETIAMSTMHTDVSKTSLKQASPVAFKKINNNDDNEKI

Q: With CC(C)(C)NC(=O)C(c1ccc(O)cc1)N(C(=O)Cn1nnc(-c2ccc(F)cc2)n1)c1ccccc1F (stereo unspecified) as the molecule, how does the EC50 [1] read?
A: The EC50 was > 35.4 µM (not active).

Q: What about the IC50 [2] of the same molecule?
A: Its IC50 is 16.8 µM (not active).

Q: What about the EC50 [3] of the same molecule?
A: Its EC50 is > 35.4 µM (not active).

Q: Which results are given for O=C(OCC(=O)c1c[nH]c2ccccc12)c1ccc([N+](=O)[O-])s1?
A: AC50 [4]: 3.8 µM (active); EC50 [5]: 36.4 µM (inactive); IC50 [6]: > 50 µM (not active); IC50 [7]: > 50 µM (not active); EC50 [8]: 1.04 µM (active); EC50 [9]: > 60 µM (not active); IC50 [10]: 1.62 µM (active)

Q: Which AC50 [11] does the source give for Clc1cccc(CNCCCSc2ncccn2)c1 here?
A: Its AC50 is 6.84 µM (active).
